Experimental data as given in patent EP1195162A1 (priority 1999, dated 2000).
Where two headings read alike, the source gives them in different places.

Legend:
rotavirus vaccine = experiment: Rotavirus vaccine with oral adjuvant; antibody production in the blood; type: in vivo, mice; conditions: adjuvant oral at first inoculation only
Description: A rotavirus vaccine preparation was prepared to contain virus particles of which amount corresponded to 3.3 µg in 20 µL. The methyl ester derivative (2) (methyl 9,12,13-trihydroxy-10E-octadecenoate) as used in Example 5 was dissolved in PBS and prepared at a concentration of 10 µg in 0.5 mL. The resulting preparation was sterilized by filter and dispensed into containers, which were used as rotavirus vaccine-hydroxy unsaturated fatty acid oral preparations or nasal drops. Such preparations were stored at a temperature of not more than 10°C in a cool and dark place.
The rotavirus vaccine as prepared above was administered into mice twice at 3-week intervals, and then the methyl ester derivative was orally administered only at or around the time of the first inoculation. Then, the antibody production in the blood was evaluated.

diphtheria toxoid (DT) = system: diphtheria toxoid (DT); parameters: species or system mice; conditions: mouse, in vivo
Mycoplasma = type: in vivo, mice; conditions: vaccine intranasal 3 times at 2-week intervals, adjuvant oral at first inoculation only
pertussis toxin (PT) = system: pertussis toxin (PT); parameters: species or system mice; conditions: mouse, in vivo
rubella = experiment: Measles-rubella vaccine with oral adjuvant; antibody production in the blood, rubella; type: in vivo, mice; conditions: vaccine twice at 3-week intervals, adjuvant oral at first inoculation only, vaccine alone: 0.09
Description: (§1) A measles-rubella vaccine preparation was prepared to contain virus particles of each vaccine of which amount corresponded to 7 µg in 20 µL of the preparation. 9,12,13-Trihydroxy-10E-octadecenoic acid dissolved in PBS and sterilized by filter was prepared at a concentration of 2.5 µg in 0.5 mL. A stabilizer (0.2% porcine gelatin, 0.1% sodium glutamate, 5% lactose) was added to these preparations. The resulting mixtures were dispensed into containers, which were used as measles-rubella vaccine combined vaccine-hydroxy unsaturated fatty acid nasal drop or oral preparations. Such preparations were stored at a temperature of not more than 10°C in a cool and dark place.
(§2) The measles-rubella vaccine as prepared above was administered into mice twice at 3-week intervals, and then 9,12,13-trihydroxy-10E-octadecenoic acid was orally administered only at or around the time of the first inoculation. Then, the antibody production in the blood was evaluated.

measles = experiment: Measles-rubella vaccine with oral adjuvant; antibody production in the blood, measles; type: in vivo, mice; conditions: vaccine twice at 3-week intervals, adjuvant oral at first inoculation only, vaccine alone: 0.14
Description: as §1, §2

[1] = system: anti-influenza virus IgA antibody; type: in vivo, BALB/c mice
[2] = system: anti-influenza virus IgG antibody; type: in vivo, BALB/c mice; conditions: secondary response
[3] = system: anti-influenza virus IgA antibody; type: in vivo, BALB/c mice; conditions: 50 µg/kg oral for 5 days, serum after 2 weeks, versus vaccine with aqueous solvent (only a low level), Figure 3
[4] = system: anti-influenza virus IgA antibody; experiment: […]; nasal irrigation liquid IgA by ELISA; type: in vivo, BALB/c mice; conditions: secondary response, 50 µg/kg oral over 1-5 days, versus no adjuvant (only a low level), Figure 4
tetanus toxoid (TT) = system: tetanus toxoid (TT); parameters: species or system mice; conditions: mouse, in vivo
[5] = system: antibodies (IgG and IgA) specific to the adjuvant and IgE; experiment: Detection of antibodies specific to the adjuvant and IgE in nasal irrigation liquid (ELISA); type: in vivo; conditions: plate coated with fatty acid-BSA complex, absorbance versus control mice without administration
Description: Subsequently, detection was carried out for the presence of antibodies (IgG and IgA) specific to the adjuvant and IgE. A linked complex between the hydroxy unsaturated-fatty acid and bovine serum albumin as a carrier protein was prepared. Each well of the 96-well EIA plate was first coated with a 100 µl aliquot of solution containing the complex (1 µg/ml). Subsequently, each well of the plate was coated with 300 µl aliquot of a blocking solution (PBS containing 5% skimmed milk) for 1 hour to avoid non-specific reactions. Then, 100 µl samples (nasal irrigation liquid) diluted to various concentrations were added into the respective wells for antigen-antibody reaction and the reaction was continued for 1 hour. The plate was then washed 3 times with PBS-0.05% Tween-20, and then 100 µl of peroxidase-conjugated anti-mouse IgG, IgA or IgE antibody (1:1000) as a secondary antibody was added thereto and the reaction was continued for one hour. After the plate was washed 3 times with PBS-Tween-20, 100 µl of a substrate solution (0.1 M citrate buffer (pH 4) containing 0.003% hydrogen peroxide and ABTS of 0.3 mg/ml) was added thereto. The plate was incubated for 15 minutes for color development. The color (O.D. at 405 nm) was assayed in a micro-plate reader.

Structure (SMILES): CCCCCC(O)C(O)/C=C/C(O)CCCCCCCC(=O)OC (stereo not drawn) [methyl ester derivative, methyl 9,12,13-trihydroxy-10E-octadecenoate]
- ELISA titer of antibody produced (rotavirus vaccine; inoculation of nasal vaccine drop twice at 3-week intervals, vaccine alone: 0.089): 0.38
- ELISA titer of antibody produced (rotavirus vaccine; vaccine inoculated orally twice at 3-week intervals, control without adjuvant: 0.018): 0.27

Structure (SMILES): CCCCCC(O)C(O)/C=C/C(O)CCCCCCCC(=O)O (stereo not drawn) [9,12,13-trihydroxy-10E-octadecenoic acid]
- level of anti-DT-IgA antibody (diphtheria toxoid (DT)): 11 ELISA units
- level of anti-DT-IgG antibody (diphtheria toxoid (DT)): 70 ELISA units
- average number of lesions (Mycoplasma; vaccine alone: 302): 178
- mice in which lesions associated with Mycoplasma infection were found (Mycoplasma; vaccine alone: all of 10): 3 of 10
- level of anti-PT-IgA antibody (pertussis toxin (PT)): 14 ELISA units
- level of anti-PT-IgG antibody (pertussis toxin (PT)): 442 ELISA units
- ELISA titer of antibody produced for rubella (rubella): 0.29
- ELISA titer of antibody produced for measles (measles): 0.30
- adjuvant activity compared with the same dose of CTB (positive control), nasal irrigation liquid IgA ([1]; mouse, in vivo): comparable
- adjuvant activity compared with the same dose of CTB (positive control), serum IgA ([1]; mouse, in vivo): comparable
- titer of anti-influenza virus IgA antibody in the serum ([1]; secondary response, adjuvant 1 µg per mouse oral, vaccine subcutaneous, compared with HA vaccine singly used, Figure 7): significantly increased
- titer of anti-influenza virus IgA antibody in the nasal irrigation liquid ([1]; secondary response, adjuvant 1 µg per mouse oral, vaccine subcutaneous, vaccine alone: only a low level, Figure 8): significantly elevated
- titer of anti-influenza virus IgG antibody in the serum ([2]; compared with HA vaccine singly used, Figure 5): increased
- titer of anti-influenza virus IgG antibody in the lung irrigation liquid ([2]; vaccine alone: only a low level, Figure 6): significantly elevated
- titer of anti-influenza virus IgA antibody in the serum [3]: highly elevated
- titer of anti-influenza virus IgA antibody in the nasal irrigation liquids [4]: highly elevated
- level of anti-TT-IgA antibody (tetanus toxoid (TT)): 11 ELISA units
- level of anti-TT-IgG antibody (tetanus toxoid (TT)): 75 ELISA units
- antibodies (IgG, IgA) specific to the adjuvant and IgE [5]: neither antibody (IgG, IgA) specific to the adjuvant nor IgE was detectable
